Read-outs that look alike come from different tables or passages of the source. Values belong to the molecule of their own block, whether it stands above or below them.
Tests used:
[1] = target: T1, GST (human placenta, hGSTP1-1) (Homo sapiens, UniProt P09211); experiment: GST substrate assay; format: biochemical; conditions: for substrate for GST (GSH consumption as biomarker): GST 0.1 U/mL, GSH 500 µM, no tyrosinase, up to 60 min at 37 °C
[2] = target: T2, human placenta GST (hGSTP1-1) (Homo sapiens, UniProt P09211); experiment: Inhibition of human placenta GST; format: biochemical; conditions: for GST inhibition in the absence and presence of tyrosinase: controls; for GST activity inhibition: quinone formed with tyrosinase; for GST inhibition: 25 µM
T2 sequence (P09211 2-210 limits assumed): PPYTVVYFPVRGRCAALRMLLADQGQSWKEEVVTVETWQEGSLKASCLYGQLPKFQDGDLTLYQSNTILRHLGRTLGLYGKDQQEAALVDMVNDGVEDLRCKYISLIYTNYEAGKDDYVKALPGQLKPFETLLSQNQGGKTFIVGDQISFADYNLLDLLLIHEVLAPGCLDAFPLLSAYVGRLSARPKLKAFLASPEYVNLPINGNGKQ

SK-MEL-28 melanoma cells [3] = experiment: MTT cell cytotoxicity assay; format: cell-based, human; conditions: for IC50: Homo sapiens, SK-MEL-28, 48 h, read-out: IC50 (48 h)
tyrosinase = experiment: Metabolism by tyrosinase; format: biochemical, Mushroom
SK-MEL-28 melanoma cells [4] = experiment: Effect of modulators on CAPE toxicity; format: cell-based, human; conditions: for MTT assay value, No modulator / MTT assay value, Ethacrynic acid (2 µM) / MTT assay value, MK-571 (10 µM) / MTT assay value, Probenecid (500 µM): 48 h; for MTT assay value, Ethacrynic acid (2 µM): 1 h pretreatment with EA; for MTT assay value, MK-571 (10 µM): 1 h pretreatment with MK-571; for MTT assay value, Probenecid (500 µM): 1 h pretreatment with probenecid; for MTT assay value, modulator alone, Cells (1% DMSO) / MTT assay value, modulator alone, Cells: no CAPE, MK-571 10 µM, probenecid 500 µM, ethacrynic acid 2 µM; for decrease of the IC50 value of CAPE (30 µM): MK-571 10 µM or probenecid 500 µM with CAPE 30 µM
[5] = target: T2, human placenta GST (hGSTP1-1); experiment: Reversible/irreversible nature of GST inhibition; format: biochemical; conditions: GST activity after filtering the reaction mixture through 10 K Millipore filter; 25 µM
[6] = target: T1, GST (human placenta, hGSTP1-1); experiment: Competitive and non-competitive GST inhibition, Lineweaver-Burk plots, Ki; format: biochemical; conditions: for Mechanism of GST inhibition, with respect to GSH (0.2–1 mM): Inhibition / Mechanism of GST inhibition, with respect to CDNB (0.2–1 mM): Inhibition: CAPE 100 µM, CAPE-quinone 10 µM, CAPE-SG 10 µM, EA 20 µM; for Ki′ with respect to GSH (0.2–1 mM) / Ki′ with respect to CDNB (0.2–1 mM): mixed inhibition; for Ki: apparent Ki
[7] = cited from earlier work
SK-MEL-28 cells = experiment: Annexin V-FITC/propidium iodide apoptosis assay; format: cell-based, human; conditions: for increase of CAPE (15 µM) induced apoptotic cell death / increase of CAPE (30 µM) induced apoptotic cell death: MK-571 10 µM or probenecid 500 µM, 1 h pretreatment, 48 h
SK-MEL-28 melanoma cells [8] = experiment: Mitochondrial membrane potential assay; format: cell-based, human; conditions: for increase of the effect of CAPE (15–30 µM) on mitochondrial membrane potential: MK-571 10 µM or probenecid 500 µM, approximate; for further decrease of mitochondrial membrane potential for CAPE (15 µM) / further decrease of mitochondrial membrane potential for CAPE (30 µM): combination with MK-571 10 µM or probenecid 500 µM, 48 h
[9] = test system: GST in human SK-MEL-28 melanoma cell homogenate; experiment: Inhibition of GST in human SK-MEL-28 melanoma cell homogenate; format: biochemical; conditions: 15–100 µM, in the presence of tyrosinase (10 U/mL)
[10] = 30 µM, 48 h incubation (data not shown)
[11] = read-out: Ki with respect to CDNB (0.2–1 mM), GSH 1 mM
[12] = read-out: Ki with respect to GSH (0.2–1 mM), CDNB 1 mM

T1 sequence (P09211 2-210 limits assumed): as above

- GST inhibition in the absence and presence of tyrosinase [2]: no GST inhibition
- substrate for tyrosinase (tyrosinase): substrates for tyrosinase
Molecule: COc1ccc(O)cc1 [4-HA, 4-hydroxyanisole]
- substrate for GST (GSH consumption as biomarker) [1]: none of these tested compounds, including CAPE, 4-HA, tyrosine, and CA, was a substrate for GST
- cell toxicity (SK-MEL-28 melanoma cells [3]; [10]): 2–27%
- IC50 (SK-MEL-28 melanoma cells [3]): 60 µM

- GST activity inhibition ([2]; 50 µM): no significant GST inhibition
Molecule: COC1=CC(=O)C(=O)C=C1 [4-HA-quinone]

Molecule: CCCCS(=N)(=O)CCC(N)C(=O)O (centres unmarked) [BSO]
- effect on CAPE induced toxicity in SK-MEL-28 cells (SK-MEL-28 melanoma cells [4]; data not shown): enhanced

- reversible or irreversible nature of GST inhibition [5]: weak and reversible inhibitors of GST
- substrate for tyrosinase (tyrosinase): substrates for tyrosinase
Molecule: O=C(O)/C=C/c1ccc(O)c(O)c1 [CA, caffeic acid]
- substrate for GST (GSH consumption as biomarker) [1]: none of these tested compounds, including CAPE, 4-HA, tyrosine, and CA, was a substrate for GST
- cell toxicity (SK-MEL-28 melanoma cells [3]; [10]): 2–27%
- IC50 (SK-MEL-28 melanoma cells [3]): 2300 µM

- reversible or irreversible nature of GST inhibition [5]: irreversibly
Molecule: O=C(O)/C=C/C1=CC(=O)C(=O)C=C1 [CA-quinone]

- inhibition at 50 µM ([2]; read-out: GST activity inhibition): 13%
- reversible or irreversible nature of GST inhibition [5]: weak and reversible inhibitors of GST
- Mechanism of GST inhibition, with respect to GSH (0.2–1 mM): Inhibition ([6]; CDNB 1 mM): Mixed
- Ki′ with respect to GSH (0.2–1 mM) ([6]; CDNB 1 mM): 2990 µM
- Mechanism of GST inhibition, with respect to CDNB (0.2–1 mM): Inhibition ([6]; GSH 1 mM): Mixed
- Ki′ with respect to CDNB (0.2–1 mM) ([6]; GSH 1 mM): 451 µM
- Ki ([6]; Ki with respect to CDNB (0.2–1 mM), GSH 1 mM): 233 µM
- Ki ([6]; Ki with respect to GSH (0.2–1 mM), CDNB 1 mM): 942 µM
- substrate for tyrosinase (tyrosinase): substrates for tyrosinase
- CAPE metabolized by tyrosinase (tyrosinase; after a 60-min incubation): 90%
Molecule: O=C(/C=C/c1ccc(O)c(O)c1)OCCc1ccccc1 [CAPE, caffeic acid phenethyl ester]
- substrate for GST (GSH consumption as biomarker) [1]: none of these tested compounds, including CAPE, 4-HA, tyrosine, and CA, was a substrate for GST
- cell toxicity (SK-MEL-28 melanoma cells [3]; 15 µM, 48 h incubation): 48%
- IC50 (SK-MEL-28 melanoma cells [3]): 15 µM
- MTT assay value, No modulator (SK-MEL-28 melanoma cells [4]; CAPE 15 µM): 52 ± 2
- MTT assay value, Ethacrynic acid (2 µM) (SK-MEL-28 melanoma cells [4]; CAPE 15 µM): 51 ± 2
- MTT assay value, MK-571 (10 µM) (SK-MEL-28 melanoma cells [4]; CAPE 15 µM): 39 ± 3
- MTT assay value, Probenecid (500 µM) (SK-MEL-28 melanoma cells [4]; CAPE 15 µM): 31 ± 2
- MTT assay value, No modulator (SK-MEL-28 melanoma cells [4]; CAPE 30 µM): 38 ± 2
- MTT assay value, Ethacrynic acid (2 µM) (SK-MEL-28 melanoma cells [4]; CAPE 30 µM): 39 ±4
- MTT assay value, MK-571 (10 µM) (SK-MEL-28 melanoma cells [4]; CAPE 30 µM): 26 ± 1
- MTT assay value, Probenecid (500 µM) (SK-MEL-28 melanoma cells [4]; CAPE 30 µM): 29 ± 1
- stability in human plasma [7]: highly stable

- GST activity inhibition ([2]; 10 µM): 70%
- GST inhibition [2]: ≥ 85%
- GST activity inhibition ([2]; 50 µM): 93%
- reversible or irreversible nature of GST inhibition [5]: irreversible covalent binding
- Mechanism of GST inhibition, with respect to GSH (0.2–1 mM): Inhibition ([6]; CDNB 1 mM): Competitive
- Mechanism of GST inhibition, with respect to CDNB (0.2–1 mM): Inhibition ([6]; GSH 1 mM): Mixed
- Ki′ with respect to CDNB (0.2–1 mM) ([6]; GSH 1 mM): 8.8 µM
- Ki [6, 11]: 2.7 µM
- Ki [6, 12]: 0.7 µM
Molecule: O=C(/C=C/C1=CC(=O)C(=O)C=C1)OCCc1ccccc1 [CAPE-quinone]

Molecule: O=[N+]([O-])c1ccc(Cl)c([N+](=O)[O-])c1 [CDNB, 1-chloro-2,4-dinitrobenzene]
- glutathione consumed per mole of CDNB ([1]; CDNB metabolized by GST, 60 min incubation, positive control): 0.6 mol

Molecule: C=C(CC)C(=O)c1ccc(OCC(=O)O)c(Cl)c1Cl [Ethacrynic acid, ethacrynic acid]
- effect on the IC50 value of CAPE towards melanoma cells (SK-MEL-28 melanoma cells [4]; EA 2 µM): did not affect
- MTT assay value, modulator alone, Cells (1% DMSO) (SK-MEL-28 melanoma cells [4]): 96 ± 3
- MTT assay value, modulator alone, Cells (SK-MEL-28 melanoma cells [4]): 97 ± 4

Molecule: CN(C)C(=O)CCSC(SCCC(=O)O)c1cccc(/C=C/c2ccc3ccc(Cl)cc3n2)c1 (centres unmarked) [MK-571]
- decrease of the IC50 value of CAPE (30 µM) (SK-MEL-28 melanoma cells [4]): 12%
- MTT assay value, modulator alone, Cells (1% DMSO) (SK-MEL-28 melanoma cells [4]): 97 ± 1
- MTT assay value, modulator alone, Cells (SK-MEL-28 melanoma cells [4]): 98 ± 3
- increase of CAPE (15 µM) induced apoptotic cell death (SK-MEL-28 cells): 3%
- increase of CAPE (30 µM) induced apoptotic cell death (SK-MEL-28 cells): 7%
- increase of the effect of CAPE (15–30 µM) on mitochondrial membrane potential (SK-MEL-28 melanoma cells [8]): 3–4 fold
- further decrease of mitochondrial membrane potential for CAPE (15 µM) (SK-MEL-28 melanoma cells [8]): 10%
- further decrease of mitochondrial membrane potential for CAPE (30 µM) (SK-MEL-28 melanoma cells [8]): 29%

Molecule: CCCN(CCC)S(=O)(=O)c1ccc(C(=O)O)cc1 [probenecid]
- decrease of the IC50 value of CAPE (30 µM) (SK-MEL-28 melanoma cells [4]): 9%
- MTT assay value, modulator alone, Cells (1% DMSO) (SK-MEL-28 melanoma cells [4]): 99 ± 6
- MTT assay value, modulator alone, Cells (SK-MEL-28 melanoma cells [4]): 97 ± 5
- increase of CAPE (15 µM) induced apoptotic cell death (SK-MEL-28 cells): 13%
- increase of CAPE (30 µM) induced apoptotic cell death (SK-MEL-28 cells): 16%
- change of CAPE-induced apoptotic cell death (SK-MEL-28 cells; probenecid 500 µM, CAPE at 15 or 30 µM): approximately doubled
- increase of the effect of CAPE (15–30 µM) on mitochondrial membrane potential (SK-MEL-28 melanoma cells [8]): 8–11 fold
- further decrease of mitochondrial membrane potential for CAPE (15 µM) (SK-MEL-28 melanoma cells [8]): 56%
- further decrease of mitochondrial membrane potential for CAPE (30 µM) (SK-MEL-28 melanoma cells [8]): 68%

- GST inhibition in the absence and presence of tyrosinase [2]: no GST inhibition
- substrate for tyrosinase (tyrosinase): substrates for tyrosinase
Molecule: N[C@@H](Cc1ccc(O)cc1)C(=O)O [tyrosine, L-tyrosine]
- substrate for GST (GSH consumption as biomarker) [1]: none of these tested compounds, including CAPE, 4-HA, tyrosine, and CA, was a substrate for GST
- GST inhibition in SK-MEL-28 melanoma cell homogenate [9]: did not show any significant GST inhibition
- cell toxicity (SK-MEL-28 melanoma cells [3]; [10]): 2–27%
- IC50 (SK-MEL-28 melanoma cells [3]): > 5000 µM

Molecule: N[C@@H](CC1=CC(=O)C(=O)C=C1)C(=O)O [tyrosine–quinone]
- GST activity inhibition ([2]; 50 µM): no significant GST inhibition

Molecule: caffeic acid glutathione conjugate [CA-SG conjugate]
- reversible or irreversible nature of GST inhibition [5]: reversibly

Molecule: caffeic acid phenethyl ester glutathione conjugate [CAPE-SG conjugate]
- GST inhibition [2]: ≥ 85%
- reversible or irreversible nature of GST inhibition [5]: reversible
- Mechanism of GST inhibition, with respect to GSH (0.2–1 mM): Inhibition ([6]; CDNB 1 mM): Mixed
- Ki′ with respect to GSH (0.2–1 mM) ([6]; CDNB 1 mM): 14 µM
- Mechanism of GST inhibition, with respect to CDNB (0.2–1 mM): Inhibition ([6]; GSH 1 mM): Competitive
- Ki [6, 11]: 3.1 µM
- Ki [6, 12]: 2.6 µM

— paper PMC3706206 (Chemico-biological interactions, 2011)
